ChEMBL document CHEMBL1833838, “Pancreatic anticancer activity of a novel geranylgeranylated coumarin derivative” (2011)
Calls of active or inactive are those of the source. The calls are words filed in the database; no cut-off is given here.

Columns and labels:
[1] = tested on: PANC-1; assay: Cytotoxicity against human PANC1 cells in nutrient-deprived condition assessed as cell death at 200 uM after 24 hrs by WST-8 assay; format: functional
[2] = tested on: PANC-1; assay: Cytotoxicity against human PANC1 cells in nutrient-deprived condition at 0.01 ug/mL after 24 hrs by WST-8 assay; format: functional, cell-based
[3] = tested on: PANC-1; assay: Cytotoxicity against human PANC1 cells in nutrient-deprived condition assessed as cell death at 100 uM after 24 hrs by WST-8 assay; format: functional
[4] = tested on: PANC-1; assay: Cytotoxicity against human PANC1 cells in nutrient-deprived condition assessed as cell death at 6.25 uM after 24 hrs by WST-8 assay; format: functional
[5] = tested on: PANC-1; assay: Induction of apoptosis in human PANC1 cells in nutrient-deprived condition assessed as morphological changes at 3.125 to 12.5 uM up to 24 hrs by microscopy; format: functional, cell-based

SMILES: O=c1ccc2ccc(OC3CCCC3)cc2o1
- Activity [1]: 100%

SMILES: CC(C)(OC(=O)/C=C/c1ccc(O)cc1)[C@@H]1Cc2c(ccc3ccc(=O)oc23)O1
- Activity [2]: Active

SMILES: CC(C)=CCC/C(C)=C/CC/C(C)=C/CC/C(C)=C/COc1ccc2ccc(=O)oc2c1
- Activity [3]: Active
- Activity [4]: 100%
- Activity [5]: Active

SMILES: CC(C)=CCOc1ccc2ccc(=O)oc2c1 [7-PRENYLOXYCOUMARIN]
- Activity [3]: 100%

SMILES: CC(C)=CCC/C(C)=C/CC/C(C)=C/COc1cc2ccccc2oc1=O
- Activity [3]: Active

SMILES: CC(C)=CCC/C(C)=C/COc1ccc2ccc(=O)oc2c1
- Activity [3]: Active
